Test results published in ChEMBL document CHEMBL1201862, “PubChem BioAssay data set” (2004).
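Interpolation was linear, between the two tested concentrations surrounding the appropriate level; five concentrations were tested over 48 hours in 96-well plates. Abbreviation: GI50, concentration required for 50% inhibition of growth.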 Activity calls are given as the source filed them. No stated cut-off is given here; in the data, active = GI50 up to about 1.1 µM and inactive = higher.

Tests used:
Assay in all cases: DTP human tumour cell line panel, 48 h
RXF 393 = system: RXF 393
OVCAR-3 = system: OVCAR-3
IGROV-1 = system: IGROV-1
SK-MEL-5 = system: SK-MEL-5
SN12C = system: SN12C
HCT-116 = system: HCT-116
KM12 = system: KM12
K562 = system: K562
786-0 = system: 786-0
CCRF-CEM = system: CCRF-CEM
HOP-92 = system: HOP-92
TK-10 = system: TK-10
A498 = system: A498
MCF7 = system: MCF7
PC-3 = system: PC-3
T47D = system: T47D
MDA-MB-435 = system: MDA-MB-435
MDA-MB-231 = system: MDA-MB-231
BT-549 = system: BT-549

SMILES | GI50 (RXF 393) | GI50 (OVCAR-3) | GI50 (IGROV-1) | GI50 (SK-MEL-5) | GI50 (SN12C) | GI50 (HCT-116) | GI50 (KM12) | GI50 (K562) | GI50 (786-0) | GI50 (CCRF-CEM) | GI50 (HOP-92) | GI50 (TK-10) | GI50 (A498) | GI50 (MCF7) | GI50 (PC-3) | GI50 (T47D) | GI50 (MDA-MB-435) | GI50 (MDA-MB-231) | GI50 (BT-549)
O=C(NCc1ccc2ccc3cccnc3c2n1)c1ccc[n+](Cc2ccccc2)c1 | > 100 µM (inactive) | 55.6 µM (inactive) | > 100 µM (inactive) | 74 µM (inactive) | > 100 µM (inactive) | > 100 µM (inactive) | 91.4 µM (inactive) | 83.8 µM (inactive) | > 100 µM (inactive) | > 100 µM (inactive) | 37.7 µM (inactive) | > 100 µM (inactive) | – | – | – | – | – | – | –
CC(=O)O[C@H]1CC[C@@]2(C)C(=CC[C@@H]3C2CC[C@]2(C)Nc4oncc4CC32)C1 (some centres not stated) | 38.8 µM (inactive) | 16.3 µM (inactive) | 28.1 µM (inactive) | 17.8 µM (inactive) | – | 15.5 µM (inactive) | 22.6 µM (inactive) | 6.68 µM (inactive) | > 100 µM (inactive) | 4.85 µM (inactive) | – | 49.2 µM (inactive) | 40.6 µM (inactive) | – | – | – | – | – | –
NC(=O)c1ccccc1NC(=O)C(=O)Cc1nc2ccccc2nc1O | > 100 µM (inactive) | > 100 µM (inactive) | > 100 µM (inactive) | > 100 µM (inactive) | – | > 100 µM (inactive) | 71.8 µM (inactive) | > 100 µM (inactive) | > 100 µM (inactive) | > 100 µM (inactive) | 98.6 µM (inactive) | > 100 µM (inactive) | > 100 µM (inactive) | – | – | – | – | – | –
Cc1cn(C2C=CC(COP(=O)(OCC3=CC(=O)c4ccccc4C3=O)N(C)CCCCCl)O2)c(=O)[nH]c1=O (configuration not stated) | 2.5 µM (inactive) | 3.5 µM (inactive) | 10.6 µM (inactive) | 0.813 µM (active) | 11.6 µM (inactive) | 14 µM (inactive) | 10.6 µM (inactive) | 5.81 µM (inactive) | 12.7 µM (inactive) | 3.12 µM (inactive) | 0.074 µM (active) | 20.7 µM (inactive) | – | 6.98 µM (inactive) | 12.1 µM (inactive) | 2.09 µM (inactive) | 1.94 µM (inactive) | 12.6 µM (inactive) | –
COC1(OC)C=CC2C1C1C=CC2C1(OC)OC (configuration not stated) | > 100 µM (inactive) | > 100 µM (inactive) | > 100 µM (inactive) | > 100 µM (inactive) | > 100 µM (inactive) | > 100 µM (inactive) | > 100 µM (inactive) | > 100 µM (inactive) | > 100 µM (inactive) | > 100 µM (inactive) | > 100 µM (inactive) | > 100 µM (inactive) | > 100 µM (inactive) | > 100 µM (inactive) | > 100 µM (inactive) | > 100 µM (inactive) | > 100 µM (inactive) | > 100 µM (inactive) | –
CC(=O)ONC(C(=O)C(C)(C)C)C(=O)C(C)(C)C | > 100 µM (inactive) | > 100 µM (inactive) | > 100 µM (inactive) | > 100 µM (inactive) | > 100 µM (inactive) | > 100 µM (inactive) | > 100 µM (inactive) | > 100 µM (inactive) | > 100 µM (inactive) | > 100 µM (inactive) | > 100 µM (inactive) | > 100 µM (inactive) | > 100 µM (inactive) | > 100 µM (inactive) | > 100 µM (inactive) | > 100 µM (inactive) | – | > 100 µM (inactive) | –
CCOC(=O)C1OC(=O)CC1C1(C(=O)OCC)C=CC(=O)O1 (configuration not stated) | > 100 µM (inactive) | > 100 µM (inactive) | > 100 µM (inactive) | > 100 µM (inactive) | > 100 µM (inactive) | > 100 µM (inactive) | > 100 µM (inactive) | > 100 µM (inactive) | > 100 µM (inactive) | 59.7 µM (inactive) | > 100 µM (inactive) | > 100 µM (inactive) | – | > 100 µM (inactive) | > 100 µM (inactive) | – | – | – | > 100 µM (inactive)
